Assays:
HIV-Bal in HFA = test: Cytokine pre-stimulation and HIV-Bal replication in human fetal astrocytes, p24 ELISA; assay type: cell-based; conditions: 24 h pre-stimulation, p24 day 7
Description: (§1) U87MG (A) and HFA (B) were pre-stimulated with increasing doses of either GM-CSF or IFNγ for 24 h followed by HIV-BAL infection for 24 hours. HIV replication was determined by measuring HIV p24 levels by ELISA seven days post-infection. The dotted line represents basal level of HIV infection of astrocytes without cytokine pre-treatment. Data is representative of three experiments performed in quadruplicate. Error bars represent standard deviations of the mean. Asterisks denote significant values (p<0.05) in comparison to untreated cultures as evaluated by analysis of variance.
(§2) To determine if pre-stimulation of astrocytes primes astrocytes, for productive HIV infection, U87MG and HFA were pre-treated for 24 hours with TNFγ, GM-CSF, or IFNγ at various concentrations (0-1000 ng/ml) then infected with HIV-Bal at 10 ng of HIV p24/1×10^6 cells for 24 hours. The cells were then washed extensively or trypsinized to remove bound virus and propagated in the presence of the respective cytokine concentration. HIV infection was monitored by p24 ELISA seven days post-infection. […]
(§3) IFN-γ Treatment and HIV Infection. […] HIV infection was monitored at day 7 postinfection by measuring p24 levels by conventional enzyme-linked immunosorbent assay (ELISA) (National Cancer Institute, Frederick, Md.).

[1] = test system: IFNγ, GM-CSF and TNFγ receptors on U87MG; test: Cytokine receptor expression on U87MG by flow cytometry; assay type: cell-based, human; conditions: 24-hour treatment
Description: U87MG (A) or HFA (B) were left untreated or treated with GM-CSF (50 ng/ml), IFNγ100 ng/ml) or TNFγ100 ng/ml). […] Percent expression of GM-CSF receptor (R), IFNγR, and TNFγR was measured 24 hours post-stimulation by flow cytometry. Data is representative of three experiments. Error bars represent standard deviations of the mean.
Prior to evaluating if GM-CSF, IFNγ, and TNFγ can augment HIV replication of astrocytes, a question was whether U87MG and HFA express the respective cytokine receptors. U87MG and HFA were treated with or without the respective cytokine for 24 hours and cytokine receptor expression was evaluated by flow cytometry. Approximately 35% of U87MG expressed the IFNγ receptor and a low level of GM-CSF and TNFγ receptors (<8%; FIG. 3A). […] Untreated HFA expressed only low levels of IFNγ receptor (6%) and this expression was abrogated with IFNγ treatment. GM-CSF and TNFγ receptors were not expressed on HFA.

[2] = test system: CD4, hMR, CCR1, D6 on U87MG; test: HIV receptor and chemokine co-receptor expression on U87MG by flow cytometry; assay type: cell-based, human
Description: (§4) U87MG (A) and HFA (B) were left untreated or treated GM-CSF (50 ng/ml) or IFNγ (100 ng/ml) for 24 h. Expression of receptors on the x-axis was measured by flow cytometry. Isotype refers to mouse IgG. Data is representative of three experiments. Error bars represent standard deviation of the mean. (C). IFNγ up-regulates D6 on U87MG cells. U87MG were left untreated or treated with IFNγ. After 3 days, the cells were immunostained with anti-D6 or isotype antibodies. The first histogram (peak) represents isotype control; the dark shaded histogram represents untreated cultures, and the third histogram (peak) represents IFNγ-treated cultures. Data is typical of quadruplet experiments.
(§5) Because IFNγ was a potent cytokine in inducing HIV infection of astrocytes, it was determined whether IFNγ treatment modulated key HIV receptors CD4, human mannose receptor D6 and co-receptors (CCR1, CCR2, CCR3, CXCR4, and CCR5) for HIV infection. U87MG is human mannose receptor (hMR) […] (FIG. 5). However, hMR was not detected on HFA, which may be regulated by the differentiation stage of the HFA (FIG. 5 (B)). CD4 and hMR expression in both U87MG and HFA was not augmented by IFNγ or GM-CSF (FIG. 5(A)-(B)). […] HFA were positive for CXCR4 (12%), but its expression was not augmented by GM-CSF or IFNγ treatment (FIG. 5B). IFNγ was reported to enhance CXCR4 and CCR5 expression on simian adult astrocytes, which is in contrast to data on human fetal astrocytes highlighting a discrepancy between simian adult and human fetal astrocytes. […] Infection of U87MG and HFA with a T-tropic isolate (IIIB), while it was productive, was not enhanced by cytokine pre-treatment. This may be a consequence of the laboratory adapted HIV IIIB, therefore primary T-tropic or dual tropic strains may still be responsive to IFNγ pre-treatment of astrocytes. Recently, the CC chemokine receptor D6 was identified as a functional co-receptor for primary HIV infection of astrocytes.

CD4, hMR, CXCR4 on HFA = test: HIV receptor and chemokine co-receptor expression on HFA by flow cytometry; assay type: cell-based, human
Description: as §4, §5

HIV-Bal in U87MG = test: Cytokine pre-stimulation and HIV-Bal replication in U87MG, p24 ELISA; assay type: cell-based; conditions: pre-stimulation at 10 ng/ml, p24 day 7
Description: as §1, §2, §3

HIV IIIB = HIV IIIB replication in stimulated PBMCs, p24 ELISA; assay type: cell-based; design: dose or concentration left out as unconfirmed; conditions: ALLN at either 5 or 25, p24 day 7, vs non-ALLN treated
HIV 302151 (93US151) = test: Primary HIV isolate 302151 replication in stimulated PBMCs, p24 ELISA; assay type: cell-based; conditions: ALLN at either 5 or 25, p24 day 7, vs non-ALLN treated

## GM-CSF: cytokine secreted by glial cells; used to pre-stimulate astrocytes
HIV-Bal in HFA
  Induction of HIV replication: no effect
[1]
  Effect on respective cytokine receptor expression: neither GM-CSF nor TNFγ treatments had an effect
[2]
  CD4 and hMR expression: not augmented
[2]; 24 h treatment
  Up-regulation of CCR1 expression: no effect
CD4, hMR, CXCR4 on HFA
  CD4 and hMR expression: not augmented
CD4, hMR, CXCR4 on HFA; untreated 12%
  CXCR4 expression: not augmented
HIV-Bal in U87MG
  Induction of HIV replication: 5 fold

## N-acetyl-Leu-Leu-norleucinal [ALLN peptide]
HIV IIIB
  Induction of HIV IIIB replication: three
HIV 302151 (93US151)
  Induction of HIV 30215 replication: five-fold

Reference: patent US20080193563A1, “HARNESSING WNT SIGNALING TO RESTRICT HIV REPLICATION” (priority 2006, published 2008)
